Where a chain is given by its changes, count along the chain named.

Format in all cases: binding
Test [1] addresses T1, wild-type mALAS2 (murine erythroid 5-aminolevulinate synthase) (Mus musculus, UniProt P08680).
T1 sequence (P08680 79-587): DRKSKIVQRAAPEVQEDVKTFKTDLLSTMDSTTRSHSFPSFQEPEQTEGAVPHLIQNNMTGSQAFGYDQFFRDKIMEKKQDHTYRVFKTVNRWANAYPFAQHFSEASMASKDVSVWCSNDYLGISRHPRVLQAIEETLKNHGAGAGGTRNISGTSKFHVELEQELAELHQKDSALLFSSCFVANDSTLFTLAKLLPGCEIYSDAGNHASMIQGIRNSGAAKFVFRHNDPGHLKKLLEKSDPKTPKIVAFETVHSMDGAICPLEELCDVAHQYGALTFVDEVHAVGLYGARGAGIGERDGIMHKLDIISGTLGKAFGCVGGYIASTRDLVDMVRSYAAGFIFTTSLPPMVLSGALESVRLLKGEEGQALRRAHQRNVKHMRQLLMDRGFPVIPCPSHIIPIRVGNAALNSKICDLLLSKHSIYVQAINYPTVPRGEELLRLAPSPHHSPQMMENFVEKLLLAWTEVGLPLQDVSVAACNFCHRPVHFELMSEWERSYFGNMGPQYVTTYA
The test is described as follows: intrinsic protein fluorescence quenching titration.

The target of test [2] is T2, wild-type mALAS2 (murine erythroid 5-aminolevulinate synthase) (Mus musculus, UniProt P08680, K299V).
T2 sequence (P08680 79-587 K299V): T1 sequence (P08680 79-587) with K221V
The test is described as follows: intrinsic protein fluorescence quenching titration.

The target of test [3] is T1, wild-type mALAS2 (murine erythroid 5-aminolevulinate synthase). As to conditions: half-maximal protection; 50 mM phosphate pH 7.5, 10% glycerol, 18 °C; no glycine.

`CC(C)(COP(=O)(O)OP(=O)(O)OC[C@H]1O[C@@H](n2cnc3c(N)ncnc32)[C@H](O)[C@@H]1OP(=O)(O)O)[C@@H](O)C(=O)NCCC(=O)NCCS` [CoA]: the Kd in test [1] worked out at 302 ± 12 µM; in test [2], 431 ± 17 µM.

Consider `CC(C)(COP(=O)(O)OP(=O)(O)OC[C@H]1O[C@@H](n2cnc3c(N)ncnc32)[C@H](O)[C@@H]1OP(=O)(O)O)[C@@H](O)C(=O)NCCC(=O)NCCSC(=O)CCC(=O)O` [succinyl-CoA], for which the values for the dissociation constant (Kd) in test [1] and in test [2] were 297 ± 7 µM and 223 ± 8 µM, respectively. Further, the “K′” value in test [3] is 261 ± 75 µM.

The values above are taken from publication PMC4615937 (FEBS Open Bio, 2015).
